These results are taken from publication PMC7617969, “Carboxylic Acid Bioisosteres Boost Nurr1 Agonist Selectivity” (Journal of medicinal chemistry, 2025).

The inhibition is the share of the control response that was lost under treatment.

In one series the target is T1, rDHODH (Rattus norvegicus, UniProt Q63707).
T1 construct: using an N-terminally truncated recombinant DHODH enzyme as described previously[20]
Nature of the series: rat DHODH inhibition assay. It counts as biochemical, rats. As to the method: Inhibition of DHODH was measured in vitro using an N-terminally truncated recombinant DHODH enzyme as described previously. The final assay mixture contained 60 μM 2,6-dichloroindophenol, 50 μM decylubiquinone, 100 μM dihydroorotate, and the DHODH protein whose concentration was adjusted in a way that an average slope of approx. 0.2 AU/min served as the positive control (no inhibitor). Measurements were performed in 50 mM TrisHCl, 150 mM KCl, and 0.1% Triton X-100 at pH 8.0 and at 30°C with at least six different concentrations of a test compound. The reaction was started by adding dihydroorotate and measuring the absorption at 600 nm for 2 min. Each test compound concentration used for IC50 calculation was tested in at least three independent experiments.

A further series concerns the target T2, FXR (Homo sapiens, UniProt Q96RI1).
T2 construct: expressed in transfected cells; host or cells: HEK293T
T2 sequence (Q96RI1 262-486 limits assumed): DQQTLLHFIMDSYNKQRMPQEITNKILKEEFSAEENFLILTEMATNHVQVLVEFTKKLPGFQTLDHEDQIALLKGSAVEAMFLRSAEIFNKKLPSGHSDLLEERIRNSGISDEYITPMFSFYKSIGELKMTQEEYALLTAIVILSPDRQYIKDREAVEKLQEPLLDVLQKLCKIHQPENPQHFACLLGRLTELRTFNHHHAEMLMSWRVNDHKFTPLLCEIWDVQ
Nature of the series: Gal4 hybrid reporter gene assay, selectivity panel. As to conditions: 1 µM; relative activation compared to reference agonists. It counts as cell-based. As to the method: (§1) NR modulation was determined in Gal4 hybrid reporter gene assays in HEK293T cells (German Collection of Microorganisms and Cell Culture GmbH, DSMZ) using pFR-Luc (Stratagene, La Jolla, CA, USA; reporter), pRL-SV40 (Promega, Madison, WI, USA; internal control) and pFA-CMV-hNR-LBD[47],[48] plasmids coding for the hinge region and ligand binding domain of the canonical isoform of the respective NR. Cells were cultured in Dulbecco’s modified Eagle’s medium (DMEM), high glucose supplemented with 10% fetal calf serum (FCS), sodium pyruvate (1 mM), penicillin (100 U/mL), and streptomycin (100 μg/mL) at 37°C and 5% CO2 and seeded in 96-well plates (3×10^4 cells/well). After 24 h, medium was changed to Opti-MEM without supplements and cells were transiently transfected using Lipofectamine LTX reagent (Invitrogen, Carlsbad, CA, USA) according to the manufacturer’s protocol. Five hours after transfection, cells were incubated with the test compounds in Opti-MEM supplemented with penicillin (100 U/mL), streptomycin (100 μg/mL) and 0.1% DMSO for 16 h before luciferase activity was measured using the Dual-Glo Luciferase Assay System (Promega) according to the manufacturer’s protocol on a Tecan Spark luminometer (Tecan Deutschland GmbH, Crailsheim, Germany). Firefly luminescence was divided by Renilla luminescence and multiplied by 1000 resulting in relative light units (RLU) to normalize for transfection efficiency and cell growth. Fold activation was obtained by dividing the mean RLU of test compound by the mean RLU of the untreated control. All samples were tested in at least three biologically independent experiments in duplicates. For dose-response curve fitting and calculation of EC50 values, the equation “[Agonist] vs. response -- Variable slope (four parameters)” was used in GraphPad Prism (version 7.00, GraphPad Software, La Jolla, CA, USA).
A general note: Reporter assays use an easily measured gene product as a stand-in for the process of interest.

Another series addresses T3, CAR (Homo sapiens, UniProt Q14994).
T3 construct: expressed in transfected cells; host or cells: HEK293T
T3 sequence (Q14994 109-352 limits assumed): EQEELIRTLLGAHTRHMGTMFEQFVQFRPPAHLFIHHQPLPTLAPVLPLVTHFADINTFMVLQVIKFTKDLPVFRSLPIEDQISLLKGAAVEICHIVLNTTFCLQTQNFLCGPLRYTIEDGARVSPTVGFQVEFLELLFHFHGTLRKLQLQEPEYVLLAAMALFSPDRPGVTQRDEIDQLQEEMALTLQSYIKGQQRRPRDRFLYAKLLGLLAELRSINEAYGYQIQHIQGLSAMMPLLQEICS
The experiment in a line: Gal4 hybrid reporter gene assay, selectivity panel. It counts as cell-based. As to conditions: 1 µM; relative activation compared to reference agonists. As to the method: as §1

A further series has as its target T4, VDR (Homo sapiens, UniProt P11473).
T4 construct: expressed in transfected cells; host or cells: HEK293T
T4 sequence (P11473 127-423 limits assumed): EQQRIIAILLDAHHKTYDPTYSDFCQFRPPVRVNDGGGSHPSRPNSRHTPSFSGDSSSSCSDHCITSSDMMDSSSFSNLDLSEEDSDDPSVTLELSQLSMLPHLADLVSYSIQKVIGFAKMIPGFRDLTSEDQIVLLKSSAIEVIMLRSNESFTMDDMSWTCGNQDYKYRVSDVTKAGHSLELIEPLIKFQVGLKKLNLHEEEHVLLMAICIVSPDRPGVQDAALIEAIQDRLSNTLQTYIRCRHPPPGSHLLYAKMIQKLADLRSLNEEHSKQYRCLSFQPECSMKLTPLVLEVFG
The experiment in a line: Gal4 hybrid reporter gene assay, selectivity panel. It counts as cell-based. As to conditions: 1 µM; relative activation compared to reference agonists. As for the experimental part: as §1

The target in a further series is T5, PXR (Homo sapiens, UniProt O75469).
T5 construct: expressed in transfected cells; host or cells: HEK293T
T5 sequence (O75469 146-433): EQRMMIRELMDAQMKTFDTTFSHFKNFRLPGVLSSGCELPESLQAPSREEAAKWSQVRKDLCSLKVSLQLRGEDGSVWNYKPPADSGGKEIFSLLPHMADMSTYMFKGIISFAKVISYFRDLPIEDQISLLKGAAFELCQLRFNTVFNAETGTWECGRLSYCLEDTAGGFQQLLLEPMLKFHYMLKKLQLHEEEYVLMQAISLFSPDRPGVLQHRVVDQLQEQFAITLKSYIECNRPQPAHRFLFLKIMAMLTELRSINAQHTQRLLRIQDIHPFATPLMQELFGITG
Nature of the series: Gal4 hybrid reporter gene assay, selectivity panel. As to conditions: 1 µM; relative activation compared to reference agonists. It counts as cell-based. As for the experimental part:
as §1

T1 sequence (Q63707 31-395): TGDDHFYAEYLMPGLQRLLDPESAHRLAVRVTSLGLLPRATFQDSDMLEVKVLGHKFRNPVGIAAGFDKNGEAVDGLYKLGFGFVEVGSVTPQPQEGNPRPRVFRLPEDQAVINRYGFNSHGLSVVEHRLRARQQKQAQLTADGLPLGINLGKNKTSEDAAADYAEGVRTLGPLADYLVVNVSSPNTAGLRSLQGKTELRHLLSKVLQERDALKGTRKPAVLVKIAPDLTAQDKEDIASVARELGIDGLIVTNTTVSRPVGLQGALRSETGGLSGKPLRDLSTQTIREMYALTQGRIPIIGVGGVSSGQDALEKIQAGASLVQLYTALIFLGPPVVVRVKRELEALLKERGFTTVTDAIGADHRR

With `COc1cccc(-c2ccc(NC(=O)C3=C(c4nn[nH]n4)CCC3)c(F)c2)c1` [compound 32, N-{3-Fluoro-3’-methoxy-[1,1'-biphenyl]-4-yl}-2-(2H-tetrazol-5-yl)cyclopent-1-ene-1-carboxamide], at 100 µM the inhibition against rDHODH was 64 ± 2%. Moreover, the “activity on FXR” value at FXR was “no activity”. In addition, the “activity on CAR” value on CAR is “no activity”. On VDR, the “activity on VDR” value is “no activity”. Besides, the “activity on PXR” value at PXR is “no activity”.
